Experimental findings from US20260265195A1, “SARM1 MODULATORS, PREPARATIONS, AND USES THEREOF” (SIRONAX LTD, priority 2022, published 2026) are described below.

The assay addresses T1, SARM1 (50-724) (Homo sapiens, UniProt Q6SZW1).
T1 construct: Purified SARM1 (50-724) with a final concentration of 2 nM
T1 sequence (Q6SZW1 50-724): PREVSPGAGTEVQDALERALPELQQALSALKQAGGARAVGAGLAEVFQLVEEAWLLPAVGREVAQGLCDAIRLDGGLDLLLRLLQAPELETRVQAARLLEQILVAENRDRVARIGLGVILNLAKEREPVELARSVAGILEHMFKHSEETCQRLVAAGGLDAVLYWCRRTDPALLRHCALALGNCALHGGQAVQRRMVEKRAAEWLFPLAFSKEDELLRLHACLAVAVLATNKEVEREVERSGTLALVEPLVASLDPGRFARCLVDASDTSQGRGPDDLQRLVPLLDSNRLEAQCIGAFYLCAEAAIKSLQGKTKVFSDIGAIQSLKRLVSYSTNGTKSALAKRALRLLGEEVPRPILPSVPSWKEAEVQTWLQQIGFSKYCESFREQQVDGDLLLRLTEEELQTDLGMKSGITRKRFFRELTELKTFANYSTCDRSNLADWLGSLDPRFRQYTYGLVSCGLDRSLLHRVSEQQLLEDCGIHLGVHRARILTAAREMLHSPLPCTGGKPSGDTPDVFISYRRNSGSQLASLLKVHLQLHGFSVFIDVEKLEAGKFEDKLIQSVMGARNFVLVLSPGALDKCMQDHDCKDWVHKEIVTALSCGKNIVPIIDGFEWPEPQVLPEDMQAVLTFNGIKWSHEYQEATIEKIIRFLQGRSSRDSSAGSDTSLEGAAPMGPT
As to the kind of experiment: SARM1 (50-724) enzymatic assay (NMN-activated NAD+ hydrolysis, LC-MS/MS readout). The class given is biochemical. The conditions noted are these: purified SARM1 (50-724) 2 nM, 200 μM NMN activator, 100 μM NAD+ substrate, 1 h at room temperature, read-out: IC50 (SARM1 inhibitory activity). The essentials: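 Purified human SARM1 (50-724), 2 nM final in DPBS, pre-incubated 15 min at RT with compound (1% DMSO), then started with 200 μM NMN activator and 100 μM NAD+. After 1 h at RT, quenched with 70% acetonitrile; analysed by LC-MS/MS.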
Broadly, the IC50 is the midpoint of a concentration-inhibition curve. For the compound `O=C(c1nc2cc(C(F)(F)F)ccc2[nH]1)N(c1cn[nH]c1)c1cccc(Cl)c1Cl` [Compound 127, N-(2,3-dichlorophenyl)-N-(1H-pyrazol-4-yl)-5-(trifluoromethyl)-1H-benzo[d]imidazole-2-carboxamide], the IC50 is no more than 0.1 µM. Regarding `O=C(c1nc2cc(C(F)(F)F)ccc2[nH]1)N(CCOCCO)c1cccc(Cl)c1Cl` [Compound 128, N-(2,3-dichlorophenyl)-N-(2-(2-hydroxyethoxy)ethyl)-5-(trifluoromethyl)-1H-benzo[d]imidazole-2-carboxamide], the IC50 was no more than 0.1 µM.

Consider `CS(=O)(=O)CCCN(C(=O)c1nc2cc(C(F)(F)F)ccc2[nH]1)c1cccc(Cl)c1Cl` [Compound 129, N-(2,3-dichlorophenyl)-N-(3-(methylsulfonyl)propyl)-5-(trifluoromethyl)-1H-benzo[d]imidazole-2-carboxamide], for which the IC50 was no more than 0.1 µM. As to `O=C(c1nc2cc(C(F)(F)F)cc(F)c2[nH]1)N(c1cccc(F)c1Cl)C1CCS(=O)(=O)CC1` [Compound 130], the IC50 was no more than 0.1 µM. The figure for `O=C(c1nc2cc(C(F)(F)F)ccc2[nH]1)N(Cc1cc[nH]n1)c1cccc(Cl)c1Cl` [Compound 132, N-((1H-pyrazol-3-yl)methyl)-N-(2,3-dichlorophenyl)-5-(trifluoromethyl)-1H-benzo[d]imidazole-2-carboxamide] is no more than 0.1 µM; for `Cc1c(Cl)cncc1N(CC(F)(F)CO)C(=O)c1nc2cc(C(F)(F)F)ccc2[nH]1` [Compound 133, N-(5-chloro-4-methylpyridin-3-yl)-N-(2,2-difluoro-3-hydroxypropyl)-5-(trifluoromethyl)-1H-benzo[d]imidazole-2-carboxamide] it is no more than 0.1 µM; for `O=C(c1nc2cc(C(F)(F)F)ccc2[nH]1)N(CCC1CNC1)c1cccc(Cl)c1Cl` [Compound 134, N-(2-(azetidin-3-yl)ethyl)-N-(2,3-dichlorophenyl)-5-(trifluoromethyl)-1H-benzo[d]imidazole-2-carboxamide] it is 0.101 to 0.5 µM. Under `O=C(c1nc2cc(C(F)(F)F)ccc2[nH]1)N(CC1(F)COC1)c1cccc(Cl)c1Cl` [Compound 135, N-(2,3-dichlorophenyl)-N-((3-fluorooxetan-3-yl)methyl)-5-(trifluoromethyl)-1H-benzo[d]imidazole-2-carboxamido] stands no more than 0.1 µM.

With `Cc1c(Cl)cccc1N(CCO)C(=O)c1nc2cc(C(F)(F)F)ccc2[nH]1` [Compound 137, N-(3-chloro-2-methylphenyl)-N-(2-hydroxyethyl)-5-(trifluoromethyl)-1H-benzo[d]imidazole-2-carboxamide], the IC50 was no more than 0.1 µM. Take `Cc1ccnc(N(CCO)C(=O)c2nc3cc(C(F)(F)F)ccc3[nH]2)c1Cl` [Compound 138, N-(3-chloro-4-methylpyridin-2-yl)-N-(2-hydroxyethyl)-5-(trifluoromethyl)-1H-benzo[d]imidazole-2-carboxamide]: the IC50 lay within 0.101 to 0.5 µM.

In the case of `Cn1cc(-c2ccc3[nH]c(C(=O)N(CCO)c4cccc(Cl)c4Cl)nc3c2)cn1` [Compound 139, N-(2,3-dichlorophenyl)-N-(2-hydroxyethyl)-5-(1-methyl-1H-pyrazol-4-yl)-1H-benzo[d]imidazole-2-carboxamide], the IC50 is 0.101 to 0.5 µM. With `COC(=O)CN(C(=O)c1nc2cc(C(F)(F)F)ccc2[nH]1)c1cccc(Cl)c1Cl` [Compound 140, Methyl N-(2,3-dichlorophenyl)-N-(5-(trifluoromethyl)-1H-benzo[d]imidazole-2-carbonyl)glycinate], the IC50 was no more than 0.1 µM.

As for `NC(=O)CN(C(=O)c1nc2cc(C(F)(F)F)ccc2[nH]1)c1cccc(Cl)c1Cl` [Compound 141, N-(2-amino-2-oxoethyl)-N-(2,3-dichlorophenyl)-5-(trifluoromethyl)-1H-benzo[d]imidazole-2-carboxamide], the IC50 was no more than 0.1 µM.

Consider `Cc1c(-c2ccn[nH]2)ccc2[nH]c(C(=O)N(CC3COC3)c3cccc(Cl)c3Cl)nc12` [Compound 142], for which the IC50 was no less than 1 µM. As to `O=C(c1nc2c(Cl)c(-c3ccn[nH]3)ccc2[nH]1)N(CC1COC1)c1cccc(Cl)c1Cl` [Compound 143], the IC50 was no less than 1 µM. `Cc1cc(-c2ccc3[nH]c(C(=O)N(CCO)c4cccc(Cl)c4Cl)nc3c2)sn1` [Compound 144]: the IC50 fell in the range of 0.101 to 0.5 µM. Under `Cc1c(Cl)ccnc1N(CCO)C(=O)c1nc2cc(C(F)(F)F)ccc2[nH]1` [Compound 145, N-(4-chloro-3-methylpyridin-2-yl)-N-(2-hydroxyethyl)-5-(trifluoromethyl)-1H-benzo[d]imidazole-2-carboxamide] stands 0.101 to 0.5 µM; under `CC(=O)NCCN(C(=O)c1nc2cc(C(F)(F)F)ccc2[nH]1)c1cccc(Cl)c1Cl` [Compound 146, N-(2-acctamidoethyl)-N-(2,3-dichlorophenyl)-5-(trifluoromethyl)-1H-benzo[d]imidazole-2-carboxamide], no more than 0.1 µM; under `CS(=O)(=O)NCCN(C(=O)c1nc2cc(C(F)(F)F)ccc2[nH]1)c1cccc(Cl)c1Cl` [Compound 147, N-(2,3-dichlorophenyl)-N-(2-(methylsulfonamido)ethyl)-5-(trifluoromethyl)-1H-benzo[d]imidazole-2-carboxamide], no more than 0.1 µM. Regarding `Cc1c(Cl)cncc1N(CCO)C(=O)c1nc2cc(C(F)(F)F)ccc2[nH]1` [Compound 148, N-(5-chloro-4-methylpyridin-3-yl)-N-(2-hydroxyethyl)-5-(trifluoromethyl)-1H-benzo[d]imidazole-2-carboxamide], the IC50 is no more than 0.1 µM.

Turning to `O=C(c1nc2cc(C(F)(F)F)ccc2[nH]1)N(CCN1CCC1)c1cccc(Cl)c1Cl` [Compound 149, N-(2-(azetidin-1-yl)ethyl)-N-(2,3-dichlorophenyl)-6-(trifluoromethyl)-1H-benzo[d]imidazole-2-carboxamide], the IC50 was 0.101 to 0.5 µM.

For `CC(C)(O)c1ccc2[nH]c(C(=O)N(CCO)c3cccc(Cl)c3Cl)nc2c1` [Compound 150, N-(2,3-dichlorophenyl)-N-(2-hydroxyethyl)-5-(2-hydroxypropan-2-yl)-1H-benzo[d]imidazole-2-carboxamide], the IC50 was no more than 0.1 µM. As to `Cc1cccc(N(CCO)C(=O)c2nc3cc(C(F)(F)F)ccc3[nH]2)c1Cl` [Compound 151, N-(2-chloro-3-methylphenyl)-N-(2-hydroxyethyl)-5-(trifluoromethyl)-1H-benzo[d]imidazole-2-carboxamide], the IC50 is no more than 0.1 µM. The figure for `Cc1ccc(Cl)c(N(C)C(=O)c2nc3cc(C(F)(F)F)ccc3[nH]2)c1Cl` [Compound 152, N-(2,6-dichloro-3-methylphenyl)-N-methyl-5-(trifluoromethyl)-1H-benzo[d]imidazole-2-carboxamide] is no more than 0.1 µM; for `Cc1csc(-c2ccc3[nH]c(C(=O)N(CCO)c4cccc(Cl)c4Cl)nc3c2)n1` [Compound 153] it is 0.101 to 0.5 µM. Regarding `Cc1c[nH]c(-c2ccc3[nH]c(C(=O)N(CCO)c4cccc(Cl)c4Cl)nc3c2)n1` [Compound 154], the IC50 is no less than 1 µM. On to `Cc1ccnc(N(CC(F)(F)CO)C(=O)c2nc3cc(C(F)(F)F)ccc3[nH]2)c1Cl` [Compound 156, N-(3-chloro-4-methylpyridin-2-yl)-N-(2,2-difluoro-3-hydroxypropyl)-5-(trifluoromethyl)-1H-benzo[d]imidazole-2-carboxamide], for which the IC50 fell in the range of 0.101 to 0.5 µM. Under `O=C(c1nc2cc(C(F)(F)F)ccc2[nH]1)N(CCO)c1cccc(F)c1Cl` [Compound 157, N-(2-chloro-3-fluorophenyl)-N-(2-hydroxyethyl)-5-(trifluoromethyl)-1H-benzo[d]imidazole-2-carboxamide] stands no more than 0.1 µM. The figure for `Cc1c(F)cccc1N(CCO)C(=O)c1nc2cc(C(F)(F)F)ccc2[nH]1` [Compound 158, N-(3-fluoro-2-methylphenyl)-N-(2-hydroxyethyl)-5-(trifluoromethyl)-1H-benzo[d]imidazole-2-carboxamide] is no more than 0.1 µM. As to `O=C(c1nc2cc(C(F)(F)F)ccc2[nH]1)N(CCO)c1c(Cl)cccc1Cl` [Compound 159, N-(2,6-dichlorophenyl)-N-(2-hydroxyethyl)-5-(trifluoromethyl)-1H-benzo[d]imidazole-2-carboxamide], the IC50 lay in the range of 0.101 to 0.5 µM. Take `Cc1ccc2[nH]c(C(=O)N(CCO)c3cccc(Cl)c3Cl)nc2c1Br` [Compound 160]: the IC50 was no more than 0.1 µM. For `O=C(c1nc2cc(-c3cscn3)ccc2[nH]1)N(CCO)c1cccc(Cl)c1Cl` [Compound 161], the IC50 is no more than 0.1 µM. Under `O=C(c1nc2cc(C(F)(F)F)c(Cl)cc2[nH]1)N(CCO)c1cccc(Cl)c1Cl` [Compound 163] stands 0.101 to 0.5 µM; under `Cc1ccc2[nH]c(C(=O)N(CCO)c3cccc(Cl)c3Cl)nc2c1-c1cc[nH]c(=O)c1` [Compound 164], 0.101 to 0.5 µM.
